Assay results: ChEMBL document CHEMBL5442168, “ASAP - In vitro liver microsomal stability” (2024)

Tests used:
[1] = (§1) Human liver microsomal stability of compound in microsomal protein, PBS buffer pH 7.4, NADPH, glucose-6-phosphate and glucose-6-phosphate dehydrogenase media. Aliquotes were taken at 5 time points and after stopping the reaction, supernatants were analyzed using HPLC coupled with a tandem mass spectrometer. The elimination constant, half-life, and intrinsic clearance are determined as results using linear regression analysis. The assay has been performed by Enamine biological services, Bienta Ltd.The protocol is publicly available: dx.doi.org/10.17504/protocols.io.5qpvokdb9l4o/v1; assay type: ADME, microsomes, Microsome; settings: for half-life / microsomal CLint: liver microsomes; for Remaining / Remaining (without cofactor): microsomes
[2] = as §1, with “Mouse” for “Human”; assay type: ADME, microsomes, Microsome; settings: for half-life / microsomal CLint: liver microsomes; for Remaining / Remaining (without cofactor): microsomes
Wherever Remaining (without cofactor) is given: time not given here.
Wherever Remaining is given: time not given here.

Row | SMILES | half-life [1] | microsomal CLint [1] | Remaining [1] | Remaining (without cofactor) [1] | half-life [2] | microsomal CLint [2] | Remaining [2] | Remaining (without cofactor) [2]
1 | CC(C)[C@@H](Nc1ncnc2[nH]c(C(=O)N[C@H]3CCN(C)C3)cc12)c1ccc2c(c1)S(=O)(=O)CCC2 | 64 min | 26 µL/min/mg | 66% | 107% | 434 min | 4 µL/min/mg | 92% | 92%
2 | CCNC(=O)c1cc2c(N[C@@H](c3ccc4c(c3)S(=O)(=O)CCO4)C(C)C)ncnc2[nH]1 | 26.2 min | 64 µL/min/mg | 33% | 95% | 65.5 min | 26 µL/min/mg | 66% | 99%
3 | Cc1nn(C)cc1-c1cc2c(N[C@@H](c3ccc4c(c3)S(=O)(=O)CCC4)C(C)C)ncnc2[nH]1 | 6.6 min | 251 µL/min/mg | 2% | 116% | 4.3 min | 390 µL/min/mg | 1% | 103%
4 | CNC(=O)c1cccc(-c2cc3c(N[C@@H](c4ccc5c(c4)S(=O)(=O)CCC5)C(C)C)ncnc3[nH]2)c1 | 3.7 min | 455 µL/min/mg | 0% | 93% | 1.9 min | 882 µL/min/mg | 1% | 101%
5 | CC(C)[C@H](Nc1ncnc2[nH]c(-c3cnn(CC(N)=O)c3)cc12)c1ccc2c(c1)S(=O)(=O)CCC2 | 7 min | 240 µL/min/mg | 2% | 115% | 42.6 min | 39 µL/min/mg | 53% | 98%
6 | Cc1nn(C)cc1-c1cc2c(N[C@H](c3ccc4c(c3)S(=O)(=O)CCC4)C(C)C)ncnc2[nH]1 | 6.1 min | 273 µL/min/mg | 1% | 113% | 8.3 min | 202 µL/min/mg | 4% | 104%
7 | CC(C)[C@@H](Nc1ncnc2[nH]c(C(=O)N[C@@H]3CCN(C)C3)cc12)c1ccc2c(c1)S(=O)(=O)CCC2 | 83.8 min | 20 µL/min/mg | 70% | 106% | 151 min | 11 µL/min/mg | 80% | 92%
8 | CC(C)[C@@H](Nc1ncnc2[nH]c(-c3cnn(C)c3)cc12)c1ccc2c(c1)S(=O)(=O)NCC2 | 13.9 min | 120 µL/min/mg | 13% | 98% | 19.1 min | 87 µL/min/mg | 23% | 92%
9 | CC(C)[C@H](Nc1ncnc2[nH]c(-c3cnn(C)c3C#N)cc12)c1ccc2c(c1)S(=O)(=O)CCC2 | 1.8 min | 935 µL/min/mg | 0% | 101% | 5.4 min | 311 µL/min/mg | 1% | 90%
10 | CC(C)(C)[C@H](Nc1ncnc2[nH]c(-c3cnn(CC(N)=O)c3)cc12)c1ccc2c(c1)OCCO2 | 10.9 min | 153 µL/min/mg | 9% | 100% | 38.3 min | 44 µL/min/mg | 48% | 105%
11 | CNCc1cc(-c2cc3c(N[C@H](c4ccc5c(c4)S(=O)(=O)CCC5)C(C)C)ncnc3[nH]2)co1 | 25.1 min | 67 µL/min/mg | 33% | 98% | 41.8 min | 40 µL/min/mg | 51% | 96%
12 | CC(C)[C@H](Nc1ncnc2[nH]c(-c3cnn(C)c3C#N)cc12)c1ccc2c(n1)NC(=O)CO2 | 12.2 min | 137 µL/min/mg | 10% | 92% | 12.8 min | 131 µL/min/mg | 12% | 85%
13 | CNCc1cc(-c2cc3c(N[C@@H](c4ccc5c(c4)S(=O)(=O)NCC5)C(C)C)ncnc3[nH]2)co1 | 35.9 min | 46 µL/min/mg | 47% | 93% | 40 min | 42 µL/min/mg | 49% | 95%
14 | CC(C)[C@@H](Nc1ncnc2[nH]ccc12)c1ccc2c(c1)S(=O)(=O)CCO2 | 91.3 min | 18 µL/min/mg | 74% | 92% | 24.2 min | 69 µL/min/mg | 33% | 111%
15 | CC(C)[C@H](Nc1ncnc2[nH]c(-c3cnn(C)c3)cc12)c1ccc2c(c1)S(=O)(=O)CCC2 | 9.9 min | 169 µL/min/mg | 7% | 95% | 6.5 min | 255 µL/min/mg | 1% | 98%
16 | CC(C)[C@@H](Nc1ncnc2[nH]c(-c3ccc4nnn(C)c4c3)cc12)c1ccc2c(c1)S(=O)(=O)CCC2 | 2.2 min | 752 µL/min/mg | 0% | 93% | 7.6 min | 219 µL/min/mg | 3% | 93%
17 | CNC(=O)Cn1cc(-c2cc3c(N[C@H](c4ccc5c(c4)S(=O)(=O)CCC5)C(C)C)ncnc3[nH]2)cn1 | 18.1 min | 92 µL/min/mg | 23% | 101% | 15 min | 111 µL/min/mg | 16% | 96%
18 | CC(C)[C@@H](Nc1ncnc2[nH]c(-c3ccc4cncn4c3)cc12)c1ccc2c(c1)S(=O)(=O)CCC2 | 8 min | 210 µL/min/mg | 4% | 97% | 9.8 min | 170 µL/min/mg | 6% | 87%
19 | CC(C)[C@@H](Nc1ncnc2[nH]c(-c3cncc(S(C)(=O)=O)c3)cc12)c1ccc2c(c1)S(=O)(=O)CCC2 | 2.6 min | 635 µL/min/mg | 1% | 104% | 6.1 min | 272 µL/min/mg | 1% | 112%
20 | CNC(=O)c1cccc(-c2cc3c(N[C@H](c4ccc5c(c4)S(=O)(=O)CCC5)C(C)C)ncnc3[nH]2)c1 | 2.2 min | 746 µL/min/mg | 0% | 99% | 8.5 min | 197 µL/min/mg | 4% | 106%
21 | CNC(=O)c1c[nH]c2ncnc(N[C@H](c3ccc4c(c3)S(=O)(=O)CCC4)C(C)C)c12 | 6.5 min | 258 µL/min/mg | 1% | 94% | 2.2 min | 770 µL/min/mg | 0% | 99%
22 | CC(C)(C)[C@H](Nc1ncnc2[nH]c(-c3cnn(CC(N)=O)c3)cc12)c1ccc2c(n1)OCCO2 | 60.8 min | 27 µL/min/mg | 64% | 95% | 162 min | 10 µL/min/mg | 88% | 116%
23 | CNC(=O)c1cc2c(N[C@H](c3ccc4c(c3)S(=O)(=O)CCC4)C(C)C)ncnc2[nH]1 | 25 min | 67 µL/min/mg | 33% | 107% | 35.3 min | 47 µL/min/mg | 42% | 106%
24 | CC(C)[C@H](Nc1ncnc2[nH]c(-c3cnn(CC(N)=O)c3)cc12)c1ccc2c(n1)OCCO2 | 134 min | 12 µL/min/mg | 85% | 90% | 359 min | 5 µL/min/mg | 99% | 110%
25 | CC(C)[C@H](Nc1ncnc2[nH]c(C(=O)N[C@H]3CCN(C)C3)cc12)c1ccc2c(c1)S(=O)(=O)CCC2 | 150 min | 11 µL/min/mg | 80% | 98% | 1540 min | 1 µL/min/mg | 98% | 97%
26 | CC(C)[C@H](Nc1ncnc2[nH]cc(C(=O)NC3CC3)c12)c1ccc2c(c1)S(=O)(=O)CCC2 | 320 min | 5 µL/min/mg | 90% | 112% | 39.5 min | 42 µL/min/mg | 50% | 102%
27 | CC(C)[C@H](Nc1ncnc2[nH]c(C(=O)N[C@@H]3CCN(C)C3)cc12)c1ccc2c(c1)S(=O)(=O)CCC2 | 627 min | 3 µL/min/mg | 98% | 100% | 649 min | 3 µL/min/mg | 104% | 107%
28 | CCNC(=O)c1cc2c(N[C@H](c3ccc4c(c3)S(=O)(=O)CCC4)C(C)C)ncnc2[nH]1 | 15.4 min | 109 µL/min/mg | 17% | 102% | 26.3 min | 64 µL/min/mg | 34% | 97%
